Results: patent US8263056B2, “Dyed-hair-binding peptides and peptide-based hair reagents for personal care” (E I du Pont de Nemours and Company, priority 2007, dated 2012)

conditions: read-out: EC50 (concentration at which half the maximum binding was observed by measuring A405 nm), binding to dyed hair, ELISA-type assay
Text: Each selection round was monitored for enrichment of phage displaying dyed-hair-binding peptides using ELISA-like assays in the deep well plates performed using an anti-M13 phage antibody conjugated to horseradish-peroxidase, followed by the addition of a chromogenic agent ABTS (2,2′-azino-bis(3-ethylbenzthiazoline-6-sulphonic acid)). The plates were read at 405 nm.
Relative binding strengths of the phage can also be determined by testing serial dilutions of the phage for binding to dyed hair in an ELISA. For example, serial dilutions of the display-selected clones were exposed to dyed hair in an ELISA. […] Primers against the phage vector sequence (available from New England BIOLABS®) that flank the insertion site were used to determine the DNA sequence encoding the peptide for the phage in each group. […] The DNA sequences encoding dyed-hair-binding peptides isolated were determined. Peptides Dye-1 through Dye-16 were those sequenced after round 4 of selection. Peptides Dye 17 through Dye-28 were those isolated and sequenced after a fifth round of selection.
The ELISA-type assay described in Example 1 was used to evaluate the affinity of dyed-hair-binding peptides for dyed hair. All of the synthesize peptides in Table 2 were evaluated for their ability to bind to dyed hair versus two negative controls (a non-selected peptide and a blank (no peptide)).
The EC50 values (the concentration at which half the maximum binding was observed by measuring A405 nm) were deduced and given in Table 3.

Going from “SSNDSNVSWFHYYASGLTSSR-GSSG-SRKSSQKNPHHPKPPKKPTAR-GSSGK (biotin) [Aff15025]” to “SSNDSNVSWFHYYASGLTSSR-GSSGK-(biotin) [Aff15013]”, the EC50 rises from ~25 nM to ~1000 nM (40-fold). The first is the more potent here.

Compared with YYYDYYQQDYSSR-GSSGK (biotin) [Aff15027], NYNYNYNYQYSSR-GSSGK (biotin) [Aff15011] is higher in EC50: ~1000 nM for the first, > 10000 nM for the second. The first is the more potent here.

QYYQDYQYYHSSR-GSSK (biotin) [Aff15029] and “LLSDFHYGDMWDASR-GSSGK (biotin) [Aff15016]” are the same in EC50: ~1000 nM for the first, ~1000 nM for the second.

In the case of YHYDYDHYYESSR-GSSGK (biotin) [Aff15030], the EC50 is reported as ~1000 nM.
